“And” between values parts separate entries of the source, which are not always exact repeats. Equal values may be shown once. Read-outs that look alike come from different tables or passages of the source.
Legend:
epithelial cells = test: PIF binding to endometrial epithelial cells (MaBCD2 staining); design: species or system human; details: compared to non-relevant IgG
Method: (§1) In addition, to compare the recovery of β-3 integrin expression with PIF effects described after cultured hEEC in a free-fetal bovine serum (FBS) medium some cells were cultured again in FBS-medium. […] PIF binding to epithelial cells was also examined. Binding was examined using MaBCD2 staining.

[1] = tested on: donor lymphocytes and platelets; assay type: cell-based, human
Excerpt: The PIF assay, as disclosed in U.S. Pat. No. 5,646,003 to Barnea et al., entitled “Preimplantation Factor” issued Jul. 9, 1997, and in U.S. Pat. No. 5,981,198 to Barnea et al., entitled “Preimplantation Factor” granted Nov. 9, 1999, the disclosures of which are incorporated herein by reference in their entirety, may be used to measure the response of the immune system to pregnancy specific preimplantation factors. […] Lymphocyte-platelet rosettes result from the interaction of the T cell surface protein CD2 with its ligand CD58 expressed on the platelet membrane. Anti-CD2, by binding to the CD2 antigen on the T cells, inhibits their interaction with platelets.
Human PBMC were isolated by the Ficoll method. FITC-labeled nPIF-115 (SEQ ID NO: 1) and (FITC)-labeled scrPIF-1 (SEQ ID NO:5) and match-size irrelevant peptide (FITC)-labeled negative controls negPIF-1(15) (SEQ ID NO:11), were dissolved in PBS at concentrations ranging from 0.75 to 48.19 μM, and were incubated with 500,000 lymphocytes for 1 h at room temperature. The cells were washed 6 times with PBS and resuspended in 500 μl of the same buffer. T-cells and monocytes identification was performed in independent experiments by incubation with anti-CD3 and anti-CD14 antibody-phycoerithryn (PE) labeled. nPIF-115 (SEQ ID NO: 1) binding to PBMC was determined by flow cytometry. In addition, rosettes formed by T cell-platelets were detected by flow cytometry using anti-CD3 antibody-PE and anti-CD41a antibody-FITC (all antibodies were from Pharmingen Inc.).

human lymphocytes = tested on: human lymphocytes
Method: Human PBMC were isolated and cultured for 2-4 days in AIM-V medium containing 0 to 200 nM of sPIF-115 (SEQ ID NO:13) or scrPIF-115 (SEQ ID NO:5). The following proliferation-activating agents were used: anti-CD3 antibody (10 μg/ml solution) bound on the plate wells in the presence or absence of IL-2 at 10 μg/ml; phytohemmaglutinin (PHA) at 4 μg/ml. The effects of sPIF-115 (SEQ ID NO:13) or scrPIF-115 (SEQ ID NO:5) peptides were also determined by the mixed lymphocyte reaction (MLR) after 3 days in heterologous cultures of PBMC with cells previously treated with mitomycin C (100 μg/ml for 4 h). Cell proliferation was determined by tritiated thymidine incorporation (16 h) of 72-h culture. Cytokine release (IL-4, IL-10, IFN-γ and TNF-α) into culture supernatants was determined at 72 h of culture by ELISA (R&D System).

β-3 integrin = β-3 integrin expression by human endometrial epithelial cells (flow cytometry, immunocytochemistry); assay type: cell-based
Method: Human endometrial tissues were digested and stromal and epithelial cells (hEEC) isolated and cultured with a fetal bovine serum (FBS)-enriched medium until confluent layers were obtained. After that the cells were cultured for two more days in a FBS free-medium followed by a further 2-day culture in the same medium containing PIF peptides (1-500 nM).
as §1

CD2 = CD2 expression in PBMC (flow cytometry, CD2MAb-FITC); assay type: cell-based; details: PBMC exposed 3 days

Method for 46 different kinases: The effect of PIF-1 on kinases related to metabolic function was examined. The methodology for testing PIF activity on MEK1 kinase is described below, but it is applicable for all kinases tested: 50 nM Tris pH, 0.1 mM EGTA 0.10% b-mercaptoethanol 1 mg/mg BSA PIF-1 15 was dissolved in deionised water at 5 nM-5 uM range of concentrations. […] (SEQ ID NO: 23), 10 mM Mg Acetate and [gamma-33P-ATP] 500 cpm/pmol. Reaction initiated with addition of MgATP. After 40 minutes incubation at room temperature, reaction stopped by the addition of 5 ul of a 3% phosphoric acid solution. 10 ul of the reaction is spotted onto a P30 filtermat and washed three times for 5 min in 75 mM phosphoric acid and once in methanol prior to drying and scintillation counting.
The effects of PIF on 46 different kinases (listed below in Table 5) related to metabolic function were tested.

For MVRIKPGSANKPSDD [sPIF-1(15)], the “binding to epithelial cells” value (epithelial cells) was “highest binding”, the “Increase in Rosette Formation” value [1] was >370% and >288% and >208% and the “increase in the number of rosettes in the presence of the anti-CD2 antibody” value [1] was “four-fold increase”. For the same sequence, the “concentration at which lower rates of lymphocyte proliferation was found” value (“concentration at which lower rates” below) (human lymphocytes; MLR) was 1 nM, the “concentration at which lower rates” value (human lymphocytes; PHA stimulated) was 250 nM and the “concentration at which lower rates” value (human lymphocytes; anti-CD3 antibody stimulated) was 62.5 nM. The “increase in the expression of β-3-epithelial integrin” value (β-3 integrin; hEEC, 2-day culture, 1-500 nM) was “up to a four-fold increase”, the “interaction with cultures of human endometrial stromal cells” value (β-3 integrin; stromal cells) was “did not interact” and the “interaction with kinases related to metabolic function” value (46 different kinases) was “does not interact with any of kinases”. For the same sequence, the “increase in CD2 expression” value (CD2) was 170-200%.
